Data set [1] has as its target Pgp (Homo sapiens, UniProt P08183). Conditions: cited from earlier work.
The target of data set [2] is T1, OATP1B1 (Homo sapiens, UniProt Q9Y6L6).
T1 sequence (Q9Y6L6 1-691): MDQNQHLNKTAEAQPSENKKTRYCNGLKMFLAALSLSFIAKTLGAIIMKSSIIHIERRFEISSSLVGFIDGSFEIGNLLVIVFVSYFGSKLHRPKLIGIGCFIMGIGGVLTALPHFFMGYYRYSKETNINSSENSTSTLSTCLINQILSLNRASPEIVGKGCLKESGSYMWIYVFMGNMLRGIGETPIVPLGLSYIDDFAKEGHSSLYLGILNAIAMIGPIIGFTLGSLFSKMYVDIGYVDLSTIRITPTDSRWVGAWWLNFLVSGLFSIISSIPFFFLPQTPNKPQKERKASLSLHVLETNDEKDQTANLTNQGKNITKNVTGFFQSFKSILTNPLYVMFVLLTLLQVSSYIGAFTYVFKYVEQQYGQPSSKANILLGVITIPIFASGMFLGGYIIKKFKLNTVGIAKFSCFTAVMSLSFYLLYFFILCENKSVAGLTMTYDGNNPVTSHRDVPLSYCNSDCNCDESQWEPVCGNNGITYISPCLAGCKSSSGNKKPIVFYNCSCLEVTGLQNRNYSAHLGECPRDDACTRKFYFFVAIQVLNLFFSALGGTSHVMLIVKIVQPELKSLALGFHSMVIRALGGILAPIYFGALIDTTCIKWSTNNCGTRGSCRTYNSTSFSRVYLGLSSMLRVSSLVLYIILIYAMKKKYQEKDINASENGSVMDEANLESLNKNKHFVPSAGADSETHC
Conditions: cited from earlier work.

Data set [3] in a line: Phase 2a open-label combination study, pharmacokinetics and safety. It is filed as in vivo, human. Conditions: for change of exposure on reducing ODV dosing from QD to QOD: 50 mg. The procedure: A randomized, Phase 2a, open-label study was carried out to evaluate the safety, pharmacokinetics and efficacy of the combination of Compound (III), Odalasvir and Simeprevir in Genotype 1 treatment-naïve subjects with chronic hepatitis C. Other treatment-naïve subjects included Genotype 2, 3, 4, 5 and 6. The aim of the study was to determine the efficacy, pharmacokinetics (PK), and safety of Compound (III)+Odalasvir±SMV in HCV-infected subjects. […] Efficacy, PK and safety evaluations were conducted during and through 24 weeks post dosing. Up to 15 cohorts were enrolled; data was generated from cohorts that have completed dosing.

Data set [4] deals with MRP3 (Homo sapiens, UniProt O15438). Conditions: MRP2/3; cited from earlier work.
The target of data set [5] is MRP2 (Homo sapiens, UniProt Q92887). Conditions: MRP2/3; cited from earlier work.
The nature of data set [6]: PK analysis of fixed dose combinations vs single agents, single dose in healthy volunteers. It is filed as in vivo, human. The conditions noted are these: Arm 2 (FDC02) vs reference (Arm 1); 90% CI in the row below. The procedure:
SMV (100 mg), ODV (50 mg), and Compound (III) (800 mg) were administered as three different formulations or together as single doses in vivo to healthy volunteers. The arms of the study included: • Arm 1 (Reference Arm): Single oral doses of single agents, one SMV 100-mg capsule, one ODV 50-mg tablet as granule layered solid dispersion with copovidone and poloxamers, and two Compound (III) 400-mg tablets, administered together. • Arm 2: Single oral dose of fixed dose combination (FDC02): SMV 100 mg+ODV 50 mg as a spray dried solid dispersion with HPMC-AS L in a ratio ODV/HPMC-AS L 1/1 w/w+Compound (III) 800 mg • Arm 3: Single oral dose of fixed dose combination (FDC04): SMV 100 mg+ODV 50 mg as a spray dried solid dispersion with HPMC-AS L in a ratio ODV/HPMC-AS L 1/3 w/w+Compound (III) 800 mg • Arm 4: Single oral dose of fixed dose combination (FDC01): SMV 100 mg+ODV 50 mg as a spray dried solid dispersion with copovidone and poloxamers+Compound (III) 800 mg
PK parameters, including Cmax, tmax, AUClast, and AUC∞ were measured for Compound (III), ODV, SMV, and metabolites Compound A-I and Compound A-3 for each Arm of the study. Arms that included fixed dose combinations (FDC) (Arm 2, Arm 3, and Arm 4) were then compared to a single oral dose (Arm 1, the reference Arm). […]

Data set [7] has as its target BSEP (Homo sapiens, UniProt O95342). The conditions noted are these: cited from earlier work.

Each structure is given as a SMILES string.

The source of these data is patent US20170319572A1, “COMBINATION DRUG TREATMENT FOR HEPATITIS C INFECTION” (JANSSEN PHARMACEUTICALS, INC., priority 2015, published 2017).

MRP3, sequence (O15438 whole entry): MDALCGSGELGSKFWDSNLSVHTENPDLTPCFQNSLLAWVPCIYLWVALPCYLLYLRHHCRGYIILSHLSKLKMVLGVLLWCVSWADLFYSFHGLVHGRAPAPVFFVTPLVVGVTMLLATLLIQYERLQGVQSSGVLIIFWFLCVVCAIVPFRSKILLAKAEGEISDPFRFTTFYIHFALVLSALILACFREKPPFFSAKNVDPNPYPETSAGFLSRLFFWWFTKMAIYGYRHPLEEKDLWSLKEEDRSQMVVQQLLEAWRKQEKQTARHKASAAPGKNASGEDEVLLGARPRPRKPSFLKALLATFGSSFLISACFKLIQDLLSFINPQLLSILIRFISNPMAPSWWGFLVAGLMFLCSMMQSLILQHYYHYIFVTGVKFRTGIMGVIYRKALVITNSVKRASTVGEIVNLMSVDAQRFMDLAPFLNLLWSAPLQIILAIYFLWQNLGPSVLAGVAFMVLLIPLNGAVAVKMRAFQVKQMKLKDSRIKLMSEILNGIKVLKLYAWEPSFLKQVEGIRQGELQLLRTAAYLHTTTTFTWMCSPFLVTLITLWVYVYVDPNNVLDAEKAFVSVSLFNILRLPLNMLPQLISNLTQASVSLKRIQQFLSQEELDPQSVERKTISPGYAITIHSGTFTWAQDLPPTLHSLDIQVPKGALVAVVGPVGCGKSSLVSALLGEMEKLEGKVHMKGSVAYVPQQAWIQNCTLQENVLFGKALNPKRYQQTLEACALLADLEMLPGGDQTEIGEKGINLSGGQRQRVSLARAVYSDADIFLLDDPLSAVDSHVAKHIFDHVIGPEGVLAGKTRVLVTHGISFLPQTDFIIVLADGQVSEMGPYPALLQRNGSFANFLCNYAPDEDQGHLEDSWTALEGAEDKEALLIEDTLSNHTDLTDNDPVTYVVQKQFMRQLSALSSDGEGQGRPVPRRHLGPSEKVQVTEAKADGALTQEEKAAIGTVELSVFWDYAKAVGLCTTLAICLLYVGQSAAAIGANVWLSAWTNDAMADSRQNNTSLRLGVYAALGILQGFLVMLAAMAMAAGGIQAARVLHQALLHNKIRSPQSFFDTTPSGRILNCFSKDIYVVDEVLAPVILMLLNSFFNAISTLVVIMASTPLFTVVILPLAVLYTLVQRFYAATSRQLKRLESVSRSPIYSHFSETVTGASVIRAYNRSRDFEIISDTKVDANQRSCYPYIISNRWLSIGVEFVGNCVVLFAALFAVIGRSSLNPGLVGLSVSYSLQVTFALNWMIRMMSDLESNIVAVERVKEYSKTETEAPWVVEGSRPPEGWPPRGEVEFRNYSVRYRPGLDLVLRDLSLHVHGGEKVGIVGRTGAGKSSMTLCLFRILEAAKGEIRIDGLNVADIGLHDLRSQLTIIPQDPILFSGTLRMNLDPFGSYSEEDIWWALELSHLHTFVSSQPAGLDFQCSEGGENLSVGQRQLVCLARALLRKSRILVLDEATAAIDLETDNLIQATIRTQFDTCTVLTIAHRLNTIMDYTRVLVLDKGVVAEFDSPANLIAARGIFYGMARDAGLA
MRP2, sequence (Q92887 whole entry): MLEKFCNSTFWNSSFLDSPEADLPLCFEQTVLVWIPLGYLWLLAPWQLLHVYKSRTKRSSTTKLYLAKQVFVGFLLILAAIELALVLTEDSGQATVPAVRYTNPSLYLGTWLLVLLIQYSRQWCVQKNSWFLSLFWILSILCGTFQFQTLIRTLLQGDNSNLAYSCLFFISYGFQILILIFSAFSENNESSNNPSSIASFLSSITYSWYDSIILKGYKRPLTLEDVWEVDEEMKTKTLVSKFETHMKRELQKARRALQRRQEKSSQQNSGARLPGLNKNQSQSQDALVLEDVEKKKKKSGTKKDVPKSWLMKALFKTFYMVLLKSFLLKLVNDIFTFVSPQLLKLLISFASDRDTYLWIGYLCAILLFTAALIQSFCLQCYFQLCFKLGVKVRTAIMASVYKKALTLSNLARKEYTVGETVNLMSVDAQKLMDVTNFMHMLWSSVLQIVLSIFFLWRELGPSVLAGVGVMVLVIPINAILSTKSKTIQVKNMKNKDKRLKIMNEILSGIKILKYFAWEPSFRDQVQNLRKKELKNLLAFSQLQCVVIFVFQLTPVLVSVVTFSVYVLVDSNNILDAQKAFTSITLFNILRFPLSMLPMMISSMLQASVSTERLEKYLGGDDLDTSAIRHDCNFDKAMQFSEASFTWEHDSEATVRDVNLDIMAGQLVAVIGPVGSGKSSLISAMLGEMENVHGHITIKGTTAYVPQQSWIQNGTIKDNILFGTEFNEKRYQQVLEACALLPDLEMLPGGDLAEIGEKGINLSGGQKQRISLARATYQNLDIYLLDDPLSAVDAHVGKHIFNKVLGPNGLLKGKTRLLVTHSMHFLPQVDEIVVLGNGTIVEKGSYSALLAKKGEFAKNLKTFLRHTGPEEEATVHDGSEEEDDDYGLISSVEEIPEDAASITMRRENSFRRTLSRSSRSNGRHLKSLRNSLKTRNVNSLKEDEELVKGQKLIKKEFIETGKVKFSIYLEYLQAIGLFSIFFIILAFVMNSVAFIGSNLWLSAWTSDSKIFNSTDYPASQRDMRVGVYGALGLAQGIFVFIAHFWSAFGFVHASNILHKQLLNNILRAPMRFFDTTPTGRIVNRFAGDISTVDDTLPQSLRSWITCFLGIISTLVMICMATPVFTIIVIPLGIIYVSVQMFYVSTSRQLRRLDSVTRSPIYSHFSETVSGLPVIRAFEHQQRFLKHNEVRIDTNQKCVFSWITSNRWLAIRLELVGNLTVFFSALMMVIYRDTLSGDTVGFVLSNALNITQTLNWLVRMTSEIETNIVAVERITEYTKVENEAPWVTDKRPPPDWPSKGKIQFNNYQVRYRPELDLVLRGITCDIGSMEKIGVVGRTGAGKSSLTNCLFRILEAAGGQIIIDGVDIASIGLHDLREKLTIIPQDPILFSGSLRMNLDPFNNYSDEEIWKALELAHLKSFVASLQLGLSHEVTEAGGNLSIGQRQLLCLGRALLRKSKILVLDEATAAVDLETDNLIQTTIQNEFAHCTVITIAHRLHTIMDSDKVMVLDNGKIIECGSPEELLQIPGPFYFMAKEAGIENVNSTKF
BSEP, sequence (O95342 whole entry): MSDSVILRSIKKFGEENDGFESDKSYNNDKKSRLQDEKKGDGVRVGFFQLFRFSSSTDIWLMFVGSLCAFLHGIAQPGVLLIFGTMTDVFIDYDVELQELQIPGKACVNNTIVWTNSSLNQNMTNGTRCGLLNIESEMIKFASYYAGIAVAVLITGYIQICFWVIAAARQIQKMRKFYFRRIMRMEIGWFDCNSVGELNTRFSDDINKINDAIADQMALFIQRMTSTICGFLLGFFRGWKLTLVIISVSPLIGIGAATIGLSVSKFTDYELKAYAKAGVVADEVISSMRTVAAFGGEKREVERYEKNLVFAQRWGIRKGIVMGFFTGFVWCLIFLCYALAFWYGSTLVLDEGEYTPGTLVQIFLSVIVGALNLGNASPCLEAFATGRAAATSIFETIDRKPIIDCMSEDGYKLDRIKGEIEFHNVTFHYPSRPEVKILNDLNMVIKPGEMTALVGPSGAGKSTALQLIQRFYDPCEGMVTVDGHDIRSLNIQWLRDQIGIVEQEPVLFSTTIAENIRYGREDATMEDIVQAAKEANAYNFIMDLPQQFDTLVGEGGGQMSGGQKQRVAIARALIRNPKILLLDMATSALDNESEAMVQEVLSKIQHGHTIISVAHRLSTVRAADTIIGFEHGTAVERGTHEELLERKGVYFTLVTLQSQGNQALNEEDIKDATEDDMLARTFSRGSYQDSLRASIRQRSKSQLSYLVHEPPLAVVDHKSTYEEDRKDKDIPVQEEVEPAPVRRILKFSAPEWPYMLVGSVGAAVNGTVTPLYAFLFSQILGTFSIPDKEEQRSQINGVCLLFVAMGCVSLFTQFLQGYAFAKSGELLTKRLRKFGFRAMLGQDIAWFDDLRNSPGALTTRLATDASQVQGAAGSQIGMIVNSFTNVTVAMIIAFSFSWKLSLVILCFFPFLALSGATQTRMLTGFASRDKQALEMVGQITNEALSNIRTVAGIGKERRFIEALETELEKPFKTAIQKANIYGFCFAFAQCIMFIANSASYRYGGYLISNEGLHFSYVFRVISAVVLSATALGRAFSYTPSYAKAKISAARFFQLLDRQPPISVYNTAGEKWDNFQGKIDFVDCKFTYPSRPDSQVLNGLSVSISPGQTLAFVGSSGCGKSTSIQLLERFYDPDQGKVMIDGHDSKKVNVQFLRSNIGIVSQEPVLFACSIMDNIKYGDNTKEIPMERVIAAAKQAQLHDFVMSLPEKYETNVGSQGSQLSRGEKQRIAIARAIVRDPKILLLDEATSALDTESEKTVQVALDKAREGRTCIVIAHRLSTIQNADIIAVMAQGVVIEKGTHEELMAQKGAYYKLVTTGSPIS

With `CC(C)OC(=O)[C@H](C)N[P@](=O)(OC[C@@]1(F)O[C@@H](n2ccc(=O)[nH]c2=O)[C@](C)(O)[C@@H]1O)Oc1ccccc1` [Compound (III), isopropyl ((S)-(((2S,3S,4R,5R)-5-(2,4-dioxo-3,4-dihydropyrimidin-1 (2H)-yl)-2-fluoro-3,4-dihydroxy-4-methyltetrahydrofuran-2-yl)methoxy)(phenoxy)phosphoryl)-L-alaninate], the “in vitro inhibition of Pgp” value in data set [1] was “no in vitro inhibition”. Further, the “inhibition of OATP1B1” value in data set [2] is recorded as “no in vitro inhibition”.
On to `COC(=O)N[C@H](C(=O)N1[C@H](c2nc3cc(-c4cc5ccc4CCc4ccc(c(-c6ccc7[nH]c([C@@H]8C[C@@H]9CCCC[C@@H]9N8C(=O)[C@@H](NC(=O)OC)C(C)C)nc7c6)c4)CC5)ccc3[nH]2)C[C@@H]2CCCC[C@@H]21)C(C)C` [ODV, methyl [(2S)-1-[(2S,3aS,7aS)-2-[6-[11-[2-[(2S,3aS,7aS)-1-[(2S)-2-[(methoxycarbonyl)amino]-3-methylbutanoyl]octahydro-1H-indol-2-yl]-1H-benzimidazol-6-yl]tricyclo[8.2.2.2^4,7]hexadeca-1(12),4,6,10,13,15-hexaen-5-yl]-1H-benzimidazol-2-yl]octahydro-1H-indol-1-yl]-3-methyl-1-oxobutan-2-yl]carbamate], for which the entries for the “change of exposure on reducing ODV dosing from QD to QOD” value in data set [3] and in data set [3] (listed as Odalasvir) were “decreased ODV exposure proportionally” and “decreased Odalasvir exposure proportionally”, respectively. Further, in data set [3] (Compound (III) 400 mg, ODV 50 mg QD, SMV 100 mg QD), the “observed exposure in Cohort 1 / group (i)” value was “higher than anticipated”. Further, in data set [4], the “inhibition of MRP3” value is “no inhibition”. Also, the “inhibition of OATP1B1” value in data set [2] is listed as “no inhibition”. For the same molecule, in data set [5], the “inhibition of MRP2” value was “no inhibition”. In addition, the “Least Square Means Ratio, Cmax” value in data set [6] is on record as 81.00%. Also, in data set [7], the “inhibition of BSEP” value is listed as “no inhibition”.
